From the NIST ThermoML archive (doi:10.1016/j.fluid.2013.06.021)

Assay: xn = mol fraction of the nth substance listed
Settings: 101 kPa, Liquid; for speed of sound: Sing-around technique in a fixed-path interferometer; for mass density: Vibrating tube method; for viscosity: Capillary tube (Ostwald / Ubbelohde) method

CCCCOCCO [2-butoxyethan-1-ol] + CC(C)O
Settings	mass density [kg/m3]	speed of sound [m/s]	viscosity [mPa·s]
293.15 K, x1 = 0.0539	796.164	1178.8	–
293.15 K, x1 = 0.1088	805.962	1190.2	–
293.15 K, x1 = 0.1607	814.567	1200.9	–
293.15 K, x1 = 0.2041	821.305	1210	–
293.15 K, x1 = 0.2567	828.971	1220.4	–
293.15 K, x1 = 0.3095	836.163	1230.7	–
293.15 K, x1 = 0.4041	847.973	1247.7	–
293.15 K, x1 = 0.5041	859.135	1263.9	–
293.15 K, x1 = 0.6113	869.832	1279.6	–
293.15 K, x1 = 0.7078	878.523	1292.2	–
293.15 K, x1 = 0.8095	886.841	1304	–
293.15 K, x1 = 0.857	890.465	1309.2	–
293.15 K, x1 = 0.9069	894.11	1314.2	–
293.15 K, x1 = 0.9527	897.317	1318.8	–
298.15 K, x1 = 0.0539	791.98	1160.9	–
298.15 K, x1 = 0.054	–	–	2.105
298.15 K, x1 = 0.1088	801.77	1172.5	2.114
298.15 K, x1 = 0.1607	810.37	1183.5	2.132
298.15 K, x1 = 0.2041	817.11	1192.6	2.145
298.15 K, x1 = 0.2567	824.79	1203	2.166
298.15 K, x1 = 0.3095	831.99	1213.2	2.184
298.15 K, x1 = 0.4041	843.83	1230.4	2.247
298.15 K, x1 = 0.5041	855	1246.6	2.327
298.15 K, x1 = 0.6113	865.69	1262.2	2.427
298.15 K, x1 = 0.7078	874.37	1274.7	–
298.15 K, x1 = 0.7079	–	–	2.538
298.15 K, x1 = 0.8095	882.67	1286.7	2.648
298.15 K, x1 = 0.857	886.29	1291.8	2.714
298.15 K, x1 = 0.9069	889.93	1296.8	2.778
298.15 K, x1 = 0.9527	893.12	1301.5	2.838
303.15 K, x1 = 0.0539	787.87	1143.4	–
303.15 K, x1 = 0.054	–	–	1.803
303.15 K, x1 = 0.1088	797.64	1155.2	1.819
303.15 K, x1 = 0.1607	806.24	1166.2	1.847
303.15 K, x1 = 0.2041	812.99	1175.3	1.866
303.15 K, x1 = 0.2567	820.65	1185.7	1.889
303.15 K, x1 = 0.3095	827.86	1195.9	1.923
303.15 K, x1 = 0.4041	839.68	1213	1.988
303.15 K, x1 = 0.5041	850.85	1229.2	2.079
303.15 K, x1 = 0.6113	861.54	1244.9	2.194
303.15 K, x1 = 0.7078	870.2	1257.7	–
303.15 K, x1 = 0.7079	–	–	2.308
303.15 K, x1 = 0.8095	878.49	1269.7	2.427
303.15 K, x1 = 0.857	882.1	1274.8	2.487
303.15 K, x1 = 0.9069	885.74	1280	2.549
303.15 K, x1 = 0.9527	888.94	1284.7	2.604
308.15 K, x1 = 0.0539	783.58	1125.5	–
308.15 K, x1 = 0.054	–	–	1.576
308.15 K, x1 = 0.1088	793.36	1137.7	1.587
308.15 K, x1 = 0.1607	801.96	1148.9	1.606
308.15 K, x1 = 0.2041	808.71	1157.9	1.624
308.15 K, x1 = 0.2567	816.4	1168.5	1.654
308.15 K, x1 = 0.3095	823.61	1178.8	1.678
308.15 K, x1 = 0.4041	835.44	1195.9	1.734
308.15 K, x1 = 0.5041	846.62	1212.1	1.809
308.15 K, x1 = 0.6113	857.32	1228	1.886
308.15 K, x1 = 0.7078	865.98	1240.6	–
308.15 K, x1 = 0.7079	–	–	1.968
308.15 K, x1 = 0.8095	874.28	1252.6	2.056
308.15 K, x1 = 0.857	877.88	1257.8	2.101
308.15 K, x1 = 0.9069	881.52	1263	2.145
308.15 K, x1 = 0.9527	884.72	1267.7	2.188
313.15 K, x1 = 0.0539	778.94	1108	–
313.15 K, x1 = 0.1088	788.77	1120.2	–
313.15 K, x1 = 0.1607	797.4	1131.4	–
313.15 K, x1 = 0.2041	804.16	1140.5	–
313.15 K, x1 = 0.2567	811.87	1151.3	–
313.15 K, x1 = 0.3095	819.11	1161.5	–
313.15 K, x1 = 0.4041	830.99	1178.7	–
313.15 K, x1 = 0.5041	842.22	1195.1	–
313.15 K, x1 = 0.6113	852.97	1211.1	–
313.15 K, x1 = 0.7078	861.66	1223.7	–
313.15 K, x1 = 0.8095	870.01	1235.8	–
313.15 K, x1 = 0.857	873.63	1241	–
313.15 K, x1 = 0.9069	877.27	1246.2	–
313.15 K, x1 = 0.9527	880.47	1250.8	–

CCCCOCCO [2-butoxyethan-1-ol] + CCC(C)O
Settings	mass density [kg/m3]	speed of sound [m/s]	viscosity [mPa·s]
293.15 K, x1 = 0.0517	813.24	1236.5	–
293.15 K, x1 = 0.1011	819.25	1242	–
293.15 K, x1 = 0.152	825.25	1247.7	–
293.15 K, x1 = 0.2027	831.03	1253.1	–
293.15 K, x1 = 0.2541	836.67	1258.4	–
293.15 K, x1 = 0.3092	842.49	1264	–
293.15 K, x1 = 0.4012	851.78	1272.9	–
293.15 K, x1 = 0.5011	861.21	1282.2	–
293.15 K, x1 = 0.6065	870.53	1291.4	–
293.15 K, x1 = 0.7054	878.73	1299.8	–
293.15 K, x1 = 0.806	886.59	1307.9	–
293.15 K, x1 = 0.8558	890.31	1311.8	–
293.15 K, x1 = 0.8999	893.54	1315.3	–
293.15 K, x1 = 0.9516	897.19	1319.3	–
298.15 K, x1 = 0.0517	809.099	1218.9	2.932
298.15 K, x1 = 0.1011	815.491	1224.3	2.809
298.15 K, x1 = 0.152	821.091	1229.9	2.713
298.15 K, x1 = 0.2027	826.863	1235.3	2.66
298.15 K, x1 = 0.2541	832.498	1240.7	2.607
298.15 K, x1 = 0.3092	838.314	1246.4	2.586
298.15 K, x1 = 0.4012	847.585	1255.4	2.563
298.15 K, x1 = 0.5011	857.012	1264.8	2.583
298.15 K, x1 = 0.6065	866.34	1274.2	–
298.15 K, x1 = 0.6066	–	–	2.598
298.15 K, x1 = 0.7054	874.537	1282.5	2.653
298.15 K, x1 = 0.806	882.398	1290.7	2.711
298.15 K, x1 = 0.8558	886.109	1294.6	2.747
298.15 K, x1 = 0.8999	889.334	1298.1	2.796
298.15 K, x1 = 0.9516	892.99	1302.2	2.824
303.15 K, x1 = 0.0517	804.88	1202	2.441
303.15 K, x1 = 0.1011	810.88	1207	2.357
303.15 K, x1 = 0.152	816.86	1212.3	2.319
303.15 K, x1 = 0.2027	822.62	1217.7	2.283
303.15 K, x1 = 0.2541	828.26	1223	2.249
303.15 K, x1 = 0.3092	834.08	1228.6	2.22
303.15 K, x1 = 0.4012	843.34	1237.7	2.224
303.15 K, x1 = 0.5011	852.78	1247.4	2.283
303.15 K, x1 = 0.6065	862.11	1257.1	–
303.15 K, x1 = 0.6066	–	–	2.342
303.15 K, x1 = 0.7054	870.3	1265.5	2.419
303.15 K, x1 = 0.806	878.16	1273.8	2.488
303.15 K, x1 = 0.8558	881.88	1277.7	2.53
303.15 K, x1 = 0.8999	885.1	1281.2	2.562
303.15 K, x1 = 0.9516	888.76	1285.1	2.606
308.15 K, x1 = 0.0517	800.58	1183	2.081
308.15 K, x1 = 0.1011	806.58	1188.7	2.031
308.15 K, x1 = 0.152	812.55	1194.5	1.994
308.15 K, x1 = 0.2027	818.33	1200	1.97
308.15 K, x1 = 0.2541	823.96	1205.6	1.944
308.15 K, x1 = 0.3092	829.79	1211.4	1.935
308.15 K, x1 = 0.4012	839.07	1220.6	1.935
308.15 K, x1 = 0.5011	848.49	1230.3	1.964
308.15 K, x1 = 0.6065	857.81	1240	–
308.15 K, x1 = 0.6066	–	–	1.998
308.15 K, x1 = 0.7054	866.02	1248.6	2.064
308.15 K, x1 = 0.806	873.9	1256.7	2.112
308.15 K, x1 = 0.8558	877.63	1260.8	2.144
308.15 K, x1 = 0.8999	880.86	1264.2	2.172
308.15 K, x1 = 0.9516	884.53	1268.2	2.196
313.15 K, x1 = 0.0517	796.19	1164.9	–
313.15 K, x1 = 0.1011	802.19	1170.6	–
313.15 K, x1 = 0.152	808.15	1176.6	–
313.15 K, x1 = 0.2027	813.93	1182.3	–
313.15 K, x1 = 0.2541	819.59	1188	–
313.15 K, x1 = 0.3092	825.43	1193.9	–
313.15 K, x1 = 0.4012	834.71	1203.5	–
313.15 K, x1 = 0.5011	844.14	1213.3	–
313.15 K, x1 = 0.6065	853.46	1223.1	–
313.15 K, x1 = 0.7054	861.68	1231.8	–
313.15 K, x1 = 0.806	869.59	1240.2	–
313.15 K, x1 = 0.8558	873.33	1244.1	–
313.15 K, x1 = 0.8999	876.56	1247.6	–
313.15 K, x1 = 0.9516	880.24	1251.6	–
